Paper PMC11311842, “Radiosynthesis and Preclinical Evaluation of ^18F-Labeled Estradiol Derivatives with Different Lipophilicity for PET Imaging of Breast Cancer” (Cancers, 2024)
Entries after “also recorded” stand apart in the source; their conditions may differ.

What was measured:
[1] = Stability in human serum and plasma in vitro (radio-HPLC); format: in vitro ADME; conditions: 37 °C
Experimental: An aliquot of the formulated tracer solution (40 µL containing approx. 10 MBq in 0.9% NaCl) was incubated with 200 µL of human plasma (Hölzel Diagnostika Handels GmbH, from CosmoBio USA, Carlsbad, CA, USA) or human serum (Biochrom GmbH, Merck KGaA, Darmstadt, Germany), respectively, at 37 °C. After various time points (5–120 min), aliquots (30 µL) were taken and quenched in methanol or 10% TFA (30 µL). The samples were centrifuged for 3 min, and subsequently the supernatants were analyzed by radio-HPLC (Chromolith RP-18e, 100 × 4.6 mm, 10–100% acetonitrile (with 0.1% TFA) in water (with 0.1% TFA) over 5 min, 4 mL/min).

[2] = Plasma protein binding (MicroSpin G-50 columns); format: in vitro ADME; conditions: human plasma, 10 min, 37 °C
Experimental: MicroSPin G-50 columns (Cytiva, Merck KGaA, Darmstadt, Germany) were preconditioned according to the manufacturer’s protocol and the experiment was performed as follows. In brief, an aliquot of the tracer (1 µL, approx. 250 kBq) was added to NaCl (0.9%, 200 µL, negative control) or human plasma (200 µL) and incubated for 10 min at 37 °C. A sample from the plasma or negative control (40 µL) was carefully added to the resin, and the column was placed in an Eppendorf tube. After centrifugation (2 min, 2000× g), the eluate and the resin were collected separately. Both were measured for radioactivity using a γ-counter (Wallac Wizard, PerkinElmer, Waltham, MA, USA), and the radioactivity eluted from the resin was calculated as a percentage of the total amount of radioactivity. The determination of plasma protein binding was performed twice in duplicate.

ER+ T47D tumor slices = assay: In vitro autoradiography of T47D tumor slices; format: binding, human; conditions: 60 min, room temperature, with or without E2 (72 µM)
Experimental: MCF-7, MDA-MB231 and T47D tumors grown in nude mice were collected and frozen in a hexane/dry ice bath (−70 °C). Tumor slices (14 µm) were prepared on a cryostat microtome HM 500 O (Microm, Walldorf, Germany), thaw-mounted on HistoBond® adhesive glass slides (Marienfeld, Lauda-Königshofen, Germany) and stored at −80 °C. For in vitro autoradiography studies, the tumor tissue sections were thawed and pre-incubated in incubation buffer (50 mM Tris HCl, 5 mM MgCl2, 0.2% bovine serum albumin (BSA), pH 7.4) at room temperature for 15 min. Then, the sections were transferred to incubation buffer containing ^18F-TA-Glyco-EE (3–5 MBq) in a total volume of 70 mL. For the determination of non-specific binding, separate sections were incubated with ^18F-TA-Glyco-EE in the presence of E2 (72 µM). After an incubation time of 60 min, the sections were washed three times with incubation buffer, followed by a short dip in ice-cold distilled water. The slices were carefully dried in a stream of warm air and finally placed on a phosphor imager screen (Fuji Imaging Plate BAS-IP SR 2025 E) overnight prior to readout (30 µm resolution) using the HD-CR-35 Bio scanner (Elysia-Raytest, Straubenhardt, Germany). […] Regions of interest were analyzed from 3–4 tumor slices from the MCF-7, MDA-MB231 and T47D tumors, and mean values of the intensity per area were calculated.

[3] = test system: MCF-7 (ER+) tumor-bearing nude mice; assay: Small animal PET imaging; format: in vivo
Experimental: Female NMRI nude mice (Crl:NMRI-Foxn1^nu) were purchased from Charles River (Charles River Laboratories Inc., Wilmington, MA, USA) at the age of four weeks and kept in groups of four to five animals in individually ventilated cages in a twelve hours dark/light cycle, with unlimited access to water and standard chow. At the age of nine to ten weeks, one 17β-estradiol pellet per animal (0.72 mg per pellet, 3 mm diameter) with a 60-day release time (Innovative Research of America, Sarasota, FL, USA) was subcutaneously implanted on the back under isoflurane anesthesia. After three days, approximately 2–3 × 10^6 MCF-7, T47D or MDA-MB-231 tumor cells (in 50 µL PBS) were mixed with Matrigel (50 µL, BD Biosciences, Becton, Dickinson and Company, Franklin Lakes, NJ, USA) and injected subcutaneously to the back of the mice. Tumor diameters and weight of the animals were recorded five times a week. Biodistribution or imaging studies were performed three–four weeks after the inoculation of the cells. […] Dynamic images were acquired for 60 min, starting with the injection of the radiotracer. […] Regions of interest (ROIs) were drawn over the tumor, and the mean radioactivity concentration within these regions was obtained from the mean values and calculated as a percentage of the total injected dose per gram tissue (%ID/g).

CC(=O)OC1C(C[18F])OC(n2cc(C3(O)CCC4C5CCc6cc(O)ccc6C5CCC43C)nn2)C(OC(C)=O)C1OC(C)=O (stereo not drawn) [^18F-TA-Glyco-EE]
Stability in human serum and plasma (in words) ([1]; over 120 min, radio-HPLC): rapidly deacetylated in serum and plasma | Stability in Human Serum or Plasma ([1]; after 30 min, same for serum and plasma, deacetylation observed): 0% after 30 min ^2,5 | Plasma Protein Binding [2]: 79 ± 1% | Binding to T47D tumor sections (autoradiography) (ER+ T47D tumor slices): high specific binding | Uptake in MCF-7 tumors (PET) ([3]; 60 min p.i.): around 1 %ID/g | Tumor uptake, non-treated versus fulvestrant-treated animals (PET) ([3]; fulvestrant 0.5 mg s.c., second scan 48 h later, n = 4): significantly reduced tumor uptake on PET scans in one of the four animals; also recorded: did not show a significant difference
